Test results from PubChem BioAssay (NCI).
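Assay format: 96-well plates, 48-hour exposure. The concentration for 50% growth inhibition is given as GI50. Definition used: TGI = concentration required for complete inhibition of growth.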

Tests used:
Assay in all cases: DTP human tumour cell line panel, 48 h
NCI-H226 lung = system: NCI-H226 lung
PC-3 prostate = system: PC-3 prostate
HS 578T breast = system: HS 578T breast
SF-268 CNS = system: SF-268 CNS
CAKI-1 renal = system: CAKI-1 renal
HCT-15 colon = system: HCT-15 colon
TK-10 renal = system: TK-10 renal
MOLT-4 leukemia = system: MOLT-4 leukemia
SF-539 CNS = system: SF-539 CNS
UACC-62 melanoma = system: UACC-62 melanoma
SNB-75 CNS = system: SNB-75 CNS
CCRF-CEM leukemia = system: CCRF-CEM leukemia

Row | SMILES | TGI (NCI-H226 lung) [µM] | TGI (PC-3 prostate) [µM] | TGI (HS 578T breast) [µM] | TGI (SF-268 CNS) [µM] | TGI (CAKI-1 renal) [µM] | TGI (HCT-15 colon) [µM] | TGI (TK-10 renal) [µM] | TGI (MOLT-4 leukemia) [µM] | TGI (SF-539 CNS) [µM] | TGI (UACC-62 melanoma) [µM] | TGI (SNB-75 CNS) [µM] | TGI (CCRF-CEM leukemia) [µM] | GI50 (PC-3 prostate) [µM] | GI50 (HS 578T breast) [µM] | GI50 (SF-268 CNS) [µM] | GI50 (CAKI-1 renal) [µM] | GI50 (HCT-15 colon) [µM] | GI50 (TK-10 renal) [µM] | GI50 (MOLT-4 leukemia) [µM] | GI50 (UACC-62 melanoma) [µM]
1 | NC1=Nc2ccccc2Sc2nncn21 | > 100 | > 100 | > 100 | > 100 | > 100 | > 100 | > 100 | > 100 | > 100 | > 100 | > 100 | > 100 | – | – | – | – | – | – | – | –
2 | CC1OC(OC2C(O)COC(OC3C(C)OC(OC4C(OC(=O)[C@]56CCC(C)(C)C[C@@H]5C5=CCC7[C@@]8(C)C[C@H](O)[C@H](OC9OC(CO)C(O)C(O)C9O)[C@@](C)(CO)[C@@H]8CC[C@@]7(C)[C@]5(C)CC6)OCC(O)C4O)C(O)C3O)C2O)C(O)C(O)C1O (stereo not given in full) | 50.2 | 38.3 | 60.4 | 49.4 | 32 | 50.8 | 35.3 | 48.7 | 42.8 | 40.1 | 39 | 45.8 | – | – | – | – | – | – | – | –
3 | Nc1ncnc2c1ncn2[C@H]1C=C[C@@H](NO)C1 | > 100 | > 100 | > 100 | > 100 | > 100 | > 100 | > 100 | > 100 | > 100 | > 100 | > 100 | > 100 | – | – | – | – | – | – | – | –
4 | CC1C(C)(C)C23CC12C1(OCCO1)C3Br (stereo not given) | > 100 | > 100 | > 100 | > 100 | > 100 | > 100 | > 100 | > 100 | > 100 | > 100 | > 100 | > 100 | – | – | – | – | – | – | – | –
5 | C#C[C@]1(O)CC[C@H]2[C@@H]3CCC4=C/C(=N\OCCN5CCCCC5)CC[C@]4(C)[C@H]3CC[C@@]21C | 39.5 | 17.3 | 8.86 | 21.7 | 20.5 | 23 | 22.3 | 11.6 | 15.5 | 10.7 | 17.1 | > 53.8 | – | – | – | – | – | – | – | –
6 | CC(NC1=NCCO1)c1ccccc1Cl (stereo not given) | > 100 | > 100 | > 100 | > 100 | > 100 | > 100 | > 100 | > 100 | > 100 | > 100 | > 100 | > 100 | – | – | – | – | – | – | – | –
7 | Cc1ncn(-c2ccccc2O)c1C | > 100 | > 100 | > 100 | > 100 | > 100 | > 100 | > 100 | > 100 | > 100 | > 100 | > 100 | > 100 | – | – | – | – | – | – | – | –
8 | S=C(NCc1ccccc1)Nc1sc(=NCc2ccccc2)nc2sc3c(c12)CCN(N1CCc2c(sc4nc(=NCc5ccccc5)sc(NC(=S)NCc5ccccc5)c24)C1)C3 | 99.7 | > 49.8 | > 100 | > 100 | > 75.9 | > 66.7 | > 90.3 | > 96.1 | > 45.9 | > 75.2 | > 64.9 | > 70.2 | – | – | – | – | – | – | – | –
9 | OC1NC2Nc3ccccc3NC2NC1O (stereo not given) | > 100 | > 100 | > 100 | > 100 | > 100 | > 100 | > 100 | > 100 | > 100 | > 100 | > 100 | > 100 | – | – | – | – | – | – | – | –
10 | COc1c2c(c3c(c1OC)c(=O)c1ccccc1n3C)OCO2 | > 100 | > 100 | > 100 | > 100 | > 100 | > 100 | > 100 | > 100 | > 100 | > 100 | > 100 | > 100 | – | – | – | – | – | – | – | –
11 | FC1(F)ON2CCc3ccccc3C2[C@H]1c1ccccc1 (stereo not given in full) | > 100 | > 100 | > 100 | > 100 | > 100 | > 100 | > 100 | > 100 | > 100 | > 100 | 70.8 | > 100 | > 100 | 45.9 | > 100 | > 100 | > 100 | > 100 | > 100 | > 100
